From PMC5698726, “Allosteric Tuning of Caspase‐7: A Fragment‐Based Drug Discovery Approach” (Angewandte Chemie (International Ed. in English), 2017)

Experiments:
caspase-7 (C7) [1] = biological target: T1, caspase-7 (C7) (Homo sapiens, UniProt P55210); assay: fluorogenic Ac-DEVD-AFC cleavage assay; assay type: biochemical
T1 construct: gene CASP7; mature (processed, active) caspase-7, dimer, 6xHis tag; expression details only in supplement
T1 sequence (P55210 24-198): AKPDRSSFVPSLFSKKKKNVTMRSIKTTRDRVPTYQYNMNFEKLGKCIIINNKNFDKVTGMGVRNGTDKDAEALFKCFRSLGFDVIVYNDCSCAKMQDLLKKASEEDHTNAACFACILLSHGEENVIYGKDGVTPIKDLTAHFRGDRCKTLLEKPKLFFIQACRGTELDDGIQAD
T1 sequence (P55210 207-303): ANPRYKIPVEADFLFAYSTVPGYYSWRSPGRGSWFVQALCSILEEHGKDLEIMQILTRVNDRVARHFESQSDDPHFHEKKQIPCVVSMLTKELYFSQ

caspase-7 (C7) [2] = biological target: T1, caspase-7 (C7); assay: steady-state kinetics, Ac-DEVD-AFC cleavage; assay type: biochemical
caspase-7 (C7) [3] = biological target: T1, caspase-7 (C7); assay: SPR OneStep injection, His-captured protein, […] fit; assay type: binding; conditions: read-out: Dissociation constant

CC(=O)c1ccccc1Sc1ccccc1C(=O)O [compound 1, 1]
IC50 (caspase-7 (C7) [1]): 3.98 ± 0.00105 mM
Ki (caspase-7 (C7) [2]): 5.47 ± 0.398 mM
Kd (caspase-7 (C7) [3]): 8 ± 3 mM

O=C(O)C1c2ccccc2Oc2ccccc21 [compound 2, 2]
IC50 (caspase-7 (C7) [1]): 8.52 ± 0.0012 mM
Ki (caspase-7 (C7) [2]): 4.32 ± 0.194 mM
Kd (caspase-7 (C7) [3]): 4.09 ± 0.3 mM

O=C(O)Cc1ccccc1Sc1ccccc1 [compound 6, 6]
IC50 (caspase-7 (C7) [1]): 0.637 ± 0.00104 mM
Ki (caspase-7 (C7) [2]): 0.667 ± 0.0319 mM
